System: leaves of Tagetes patula plants of genotypes TAG 80 and TAG 81
Assay: Determination of phosphinothricin (PPT) toxicity on leaf explants
Type: cell-based
Conditions: leaf disks 10-60 mm^2 on MS medium with 2% sucrose, 3 mg/l BAP, 1 mg/l IAA; 2 weeks; both genotypes TAG 80 and TAG 81
Method: Leaves of Tagetes patula plants of genotypes TAG 80 and TAG 81 (Genbank, IPK Gatersleben) which were established in vitro were cut transversely to the central vein into disks 10-60 mm^2 in size and placed on MS medium supplemented with 2% sucrose, 3 mg/l benzylaminopurine (BAP), 1 mg/l indoleacetic acid (IAA) and different PPT concentrations. Incubation was for 2 weeks in a 16/8 hour light/dark photoperiod at approx. 50 μE/m^2s and at from 21 to 24° C. Then, the number of damaged explants was recorded with reference to the total number of tested explants (FIG. 2). In both Tagetes patula genotypes tested, concentrations starting at 1 mg/l PPT led to the complete destruction of all explants, which is why this concentration was used for the selection after cocultivation.

## CP(=O)(O)CC[C@H](N)C(=O)O [PPT, phosphinothricin]
  PPT concentration leading to the complete destruction of all explants: ≥ 1 mg/L

— US20030033638A1, “Production of transgenic plants of the tagetes species” (priority 1999, published 2003)
